# Experimental data taken from PubChem BioAssay (NCI).
#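 Following 48 hours of exposure in 96-well plates, responses at five concentrations were used to interpolate endpoints linearly. GI50 marks 50% less growth. TGI is the concentration that stops growth completely.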
# What was measured:
# Assay in all cases: DTP human tumour cell line panel, 48 h
# [1] = system: HS 578T breast
# [2] = system: MDA-MB-231 breast
# [3] = system: RXF 393 renal
# [4] = system: HOP-92 NSCLC
# [5] = system: A549 NSCLC
# [6] = system: BT-549 breast
# [7] = system: M14 melanoma
# [8] = system: NCI-H460 lung
# [9] = system: CCRF-CEM leukemia
# [10] = system: HL-60(TB) leukemia
# [11] = system: HT29 colon
# [12] = system: UACC-257 melanoma
# [13] = system: NCI-H23 lung
# [14] = system: HCT-116 colon
# [15] = system: OVCAR-5 ovarian
# [16] = system: CAKI-1 renal
# [17] = system: OVCAR-8 ovarian
# [18] = system: SF-268 CNS
# [19] = system: SW-620 colon
# [20] = system: SK-MEL-2 melanoma
# [21] = system: HOP-62 NSCLC
# [22] = system: SR leukemia
# [23] = system: SK-MEL-28 melanoma
# [24] = system: OVCAR-4 ovarian
# [25] = system: MDA-MB-435
# [26] = system: MCF7 breast
# [27] = system: SNB-75 CNS
# [28] = system: EKVX NSCLC
# [29] = system: LOX IMVI melanoma
# [30] = system: SF-539 CNS
# [31] = system: UACC-62 melanoma
# [32] = system: HCT-15 colon
# [33] = system: SNB-19 CNS
# [34] = system: NCI-H226 lung
# [35] = system: K-562 leukemia
# [36] = system: COLO 205 colon
# [37] = system: SK-MEL-5 melanoma
# [38] = system: KM12 colon
# [39] = system: UO-31 renal
# [40] = system: HCC-2998 colon
# [41] = system: MALME-3M melanoma
# [42] = system: NCI/ADR-RES ovarian
# [43] = system: SK-OV-3 ovarian
# [44] = system: SF-295 CNS
# [45] = system: PC-3 prostate
# [46] = system: U251 CNS
# [47] = system: RPMI-8226 leukemia
# [48] = system: A498 renal
# [49] = system: IGROV1 ovarian
# [50] = system: DU-145 prostate
# [51] = system: OVCAR-3 ovarian
# [52] = system: 786-0 renal
# [53] = system: TK-10 renal
# [54] = system: SN12C renal
# [55] = system: MOLT-4 leukemia
# [56] = system: ACHN renal
# [57] = system: T-47D breast
# [58] = system: NCI-H522 lung
compound,measurement,setting,value
COC1=C(OC)C(=O)C(Sc2ccc3ccccc3c2)=CC1=O,TGI,[1],53.4 µM
same,TGI,[2],32.9 µM
same,TGI,[3],22.1 µM
same,TGI,[4],45.6 µM
same,TGI,[5],32.3 µM
same,TGI,[6],22.5 µM
same,TGI,[7],21.8 µM
same,TGI,[8],43.4 µM
same,TGI,[9],4.31 µM
same,TGI,[10],3.35 µM
same,TGI,[11],37.8 µM
same,TGI,[12],22.2 µM
same,TGI,[13],33.1 µM
same,TGI,[14],25.9 µM
same,TGI,[15],37.2 µM
same,TGI,[16],32.8 µM
same,TGI,[17],82.4 µM
same,TGI,[18],36.3 µM
same,TGI,[19],> 61 µM
same,TGI,[20],31.4 µM
same,TGI,[21],32.7 µM
same,TGI,[22],7.95 µM
same,TGI,[23],41.5 µM
same,TGI,[24],48.5 µM
same,TGI,[25],29.8 µM
same,TGI,[26],43.9 µM
same,TGI,[27],29.8 µM
same,TGI,[28],30.5 µM
same,TGI,[29],30.6 µM
same,TGI,[30],> 57.7 µM
same,TGI,[31],20.5 µM
same,TGI,[32],44.7 µM
same,TGI,[33],32.4 µM
same,TGI,[34],27.2 µM
same,TGI,[35],10.3 µM
same,TGI,[36],23.7 µM
same,TGI,[37],13.9 µM
same,TGI,[38],21.2 µM
same,TGI,[39],16.3 µM
same,TGI,[40],26.1 µM
same,TGI,[41],28.4 µM
same,TGI,[42],69.6 µM
same,TGI,[43],31.7 µM
same,TGI,[44],23.8 µM
same,TGI,[45],26.1 µM
same,TGI,[46],21.4 µM
same,TGI,[47],5.78 µM
same,TGI,[48],29.6 µM
same,TGI,[49],39 µM
same,TGI,[50],33.7 µM
same,TGI,[51],32.7 µM
same,TGI,[52],16.3 µM
same,TGI,[53],27 µM
same,TGI,[54],26.5 µM
same,TGI,[55],4.86 µM
same,TGI,[56],23.6 µM
same,TGI,[57],35.8 µM
COc1c(O)cc2c(c1O)C(=O)C1=C(CCCC1)C2=O,TGI,[1],97.1 µM
same,TGI,[2],64.1 µM
same,TGI,[3],45 µM
same,TGI,[4],82.7 µM
same,TGI,[5],87.3 µM
same,TGI,[6],> 100 µM
same,TGI,[7],> 100 µM
same,TGI,[8],73.4 µM
same,TGI,[9],10.9 µM
same,TGI,[10],31.9 µM
same,TGI,[11],40 µM
same,TGI,[12],81.2 µM
same,TGI,[13],41.3 µM
same,TGI,[14],43.2 µM
same,TGI,[15],> 100 µM
same,TGI,[16],71 µM
same,TGI,[17],57.5 µM
same,TGI,[18],> 100 µM
same,TGI,[19],> 100 µM
same,TGI,[20],> 100 µM
same,TGI,[21],> 100 µM
same,TGI,[22],34.2 µM
same,TGI,[23],62 µM
same,TGI,[24],95.6 µM
same,TGI,[25],> 100 µM
same,TGI,[26],80.7 µM
same,TGI,[28],86.6 µM
same,TGI,[29],33.6 µM
same,TGI,[30],44 µM
same,TGI,[31],48.8 µM
same,TGI,[32],> 100 µM
same,TGI,[33],96.9 µM
same,TGI,[34],> 100 µM
same,TGI,[36],40.1 µM
same,TGI,[37],66 µM
same,TGI,[38],65.5 µM
same,TGI,[39],43.8 µM
same,TGI,[40],47.7 µM
same,TGI,[41],69.3 µM
same,TGI,[42],51.5 µM
same,TGI,[43],48.8 µM
same,TGI,[44],65.2 µM
same,TGI,[45],84.5 µM
same,TGI,[46],> 100 µM
same,TGI,[58],31.8 µM
same,TGI,[47],32.6 µM
same,TGI,[48],47.7 µM
same,TGI,[49],43.8 µM
same,TGI,[50],74.3 µM
same,TGI,[51],> 100 µM
same,TGI,[52],49.4 µM
same,TGI,[53],74.7 µM
same,TGI,[54],58.3 µM
same,TGI,[55],23 µM
same,TGI,[56],58.4 µM
same,TGI,[57],50.2 µM
Clc1ccc(Nc2nc(Nc3ccccc3)nc(Nc3ccc(-c4cc(-c5ccc(Cl)cc5)on4)cc3)n2)cc1,GI50,[1],11.4 µM
same,TGI,[1],> 100 µM
same,GI50,[2],10.5 µM
same,TGI,[2],66.3 µM
same,GI50,[3],11.3 µM
same,TGI,[3],37.6 µM
same,GI50,[4],1.93 µM
same,TGI,[4],20 µM
same,GI50,[5],19.2 µM
same,TGI,[5],> 100 µM
same,GI50,[6],32.9 µM
same,TGI,[6],> 100 µM
same,GI50,[8],17.9 µM
same,TGI,[8],> 100 µM
same,GI50,[9],11.8 µM
same,TGI,[9],> 100 µM
same,GI50,[10],51.5 µM
same,TGI,[10],> 100 µM
same,GI50,[11],10.8 µM
same,TGI,[11],25.5 µM
same,GI50,[12],29.8 µM
same,TGI,[12],> 100 µM
same,GI50,[13],18.4 µM
same,TGI,[13],60.4 µM
same,GI50,[14],7.68 µM
same,TGI,[14],26.5 µM
same,GI50,[15],20.9 µM
same,TGI,[15],89.1 µM
same,GI50,[16],15.3 µM
same,TGI,[16],69.2 µM
same,GI50,[17],21.4 µM
same,TGI,[17],> 100 µM
same,GI50,[18],43.4 µM
same,TGI,[18],> 100 µM
same,GI50,[19],26.4 µM
same,TGI,[19],> 100 µM
same,GI50,[20],24.1 µM
same,TGI,[20],> 100 µM
same,GI50,[21],18.4 µM
same,TGI,[21],> 100 µM
same,GI50,[22],26 µM
same,TGI,[22],> 100 µM
same,GI50,[23],40.3 µM
same,TGI,[23],> 100 µM
same,GI50,[24],15.4 µM
same,TGI,[24],> 100 µM
same,GI50,[25],17.8 µM
same,TGI,[25],69.7 µM
same,GI50,[26],12.2 µM
same,TGI,[26],> 100 µM
same,GI50,[27],21.6 µM
same,TGI,[27],> 100 µM
same,GI50,[28],3.14 µM
same,TGI,[28],88.4 µM
same,GI50,[29],13.7 µM
same,TGI,[29],> 100 µM
same,GI50,[30],37.9 µM
same,TGI,[30],> 100 µM
same,GI50,[31],16.7 µM
same,TGI,[31],72.4 µM
same,GI50,[32],14.1 µM
same,TGI,[32],84.8 µM
same,GI50,[33],45.6 µM
same,TGI,[33],> 100 µM
same,GI50,[34],38.8 µM
same,TGI,[34],> 100 µM
same,GI50,[35],21.4 µM
same,TGI,[35],> 100 µM
same,GI50,[36],11.9 µM
same,TGI,[36],32.5 µM
same,GI50,[37],24 µM
same,TGI,[37],> 100 µM
same,GI50,[38],13.5 µM
same,TGI,[38],52.4 µM
same,GI50,[40],29.1 µM
same,TGI,[40],> 100 µM
same,GI50,[41],31.5 µM
same,TGI,[41],93 µM
same,GI50,[42],21.1 µM
same,TGI,[42],> 100 µM
same,GI50,[43],29 µM
same,TGI,[43],> 100 µM
same,GI50,[44],12.6 µM
same,TGI,[44],77.6 µM
same,GI50,[45],8.4 µM
same,TGI,[45],> 100 µM
same,GI50,[46],17.7 µM
same,TGI,[46],> 100 µM
same,GI50,[58],16.2 µM
same,TGI,[58],36.7 µM
same,GI50,[47],18.7 µM
same,TGI,[47],> 100 µM
same,GI50,[48],3.38 µM
same,TGI,[48],55.1 µM
same,GI50,[49],12.7 µM
same,TGI,[49],> 100 µM
same,GI50,[50],20.4 µM
same,TGI,[50],80.3 µM
same,GI50,[51],27.4 µM
same,TGI,[51],> 100 µM
same,GI50,[53],19.2 µM
same,TGI,[53],> 100 µM
same,GI50,[54],24.8 µM
same,TGI,[54],> 100 µM
same,GI50,[55],21 µM
same,TGI,[55],> 100 µM
same,GI50,[56],21.9 µM
same,TGI,[56],> 100 µM
same,GI50,[57],8.94 µM
same,TGI,[57],> 100 µM
